Paper PMC5895059, “Scaffold hopping from (5-hydroxymethyl) isophthalates to multisubstituted pyrimidines diminishes binding affinity to the C1 domain of protein kinase C” (PLoS ONE, 2018)
Several values for one entry are separate records, joined by “and”; a condition that tells them apart may be missing. Identical values can stand only once.

Target: PKCα (Homo sapiens, UniProt P17252)
Experiment: [3H]PDBu displacement, 96-well plate filtration binding assay
Settings: for Displacement assay raw data (CCPM): single replicate wells; for Residual [^3H]PDBu binding to PKCα (% of control): 20 μM compound concentration, mean + SEM, n = 2–8; for Displacement of [^3H]PDBu from PKCα (in words): concentration range of 0.2–30 μM

| Residual [^3H]PDBu binding to PKCα (% of control) | Displacement of [^3H]PDBu from PKCα (in words) | Compound | Displacement assay raw data (CCPM) (0,2 µM test substance) | Displacement assay raw data (CCPM) (1 µM test substance) | Displacement assay raw data (CCPM) (4 µM test substance) | Displacement assay raw data (CCPM) (10 µM test substance) | Displacement assay raw data (CCPM) (20 µM test substance) | Displacement assay raw data (CCPM) (30 µM test substance) |
| --- | --- | --- | --- | --- | --- | --- | --- | --- |
| 88.3 ± 2.7 % of control |  | CCCCCC(CC)OC(=O)c1cc(C(=O)OC(CC)CCCCC)nc(CO)n1 (stereo not shown) [Compound 1f, Di(octan-3-yl) 2-(hydroxymethyl)pyrimidine-4,6-dicarboxylate] | 8395 CCPM and 7761 CCPM and 8223 CCPM | 8430 CCPM and 8004 CCPM and 8035 CCPM | 8187 CCPM and 8110 CCPM and 8243 CCPM | 6268 CCPM and 7306 CCPM and 7650 CCPM | 7244 CCPM and 7065 CCPM and 7340 CCPM | 7174 CCPM and 7070 CCPM and 7370 CCPM |
| 111.8 ± 6.5 % of control | could not displace | O=C(OCc1cccc(C(F)(F)F)c1)c1cc(C(=O)OCc2cccc(C(F)(F)F)c2)nc(CO)n1 [Compound 1g, Bis[3-(trifluoromethyl)benzyl] 2-(hydroxymethyl)pyrimidine-4,6-dicarboxylate] | 5983 CCPM and 11409 CCPM and 12180 CCPM and 12791 CCPM and 7834 CCPM and 6792 CCPM | 5197 CCPM and 12142 CCPM and 12212 CCPM and 11135 CCPM and 5159 CCPM and 5208 CCPM | 7023 CCPM and 11774 CCPM and 11597 CCPM and 12149 CCPM and 8091 CCPM and 7399 CCPM | 6399 CCPM and 11639 CCPM and 11927 CCPM and 11310 CCPM and 6008 CCPM and 6638 CCPM | 7300 CCPM and 11874 CCPM and 12244 CCPM and 12079 CCPM and 8018 CCPM and 7727 CCPM | 6005 CCPM and 11016 CCPM and 11803 CCPM and 12038 CCPM and 5730 CCPM and 6258 CCPM |
| 116.3 ± 5.9 % of control |  | CCOC(=O)c1cc(C(=O)OCC)nc(CO)n1 [Compound 1h, Diethyl 2-(hydroxymethyl)pyrimidine-4,6-dicarboxylate] | 6323 CCPM and 10230 CCPM and 10470 CCPM and 11100 CCPM and 5792 CCPM and 6513 CCPM | 5802 CCPM and 9840 CCPM and 9837 CCPM and 10294 CCPM and 5441 CCPM and 6766 CCPM | 5407 CCPM and 9299 CCPM and 9482 CCPM and 9928 CCPM and 5323 CCPM and 5809 CCPM | 6198 CCPM and 9686 CCPM and 9902 CCPM and 9890 CCPM and 6355 CCPM and 6092 CCPM | 6120 CCPM and 9294 CCPM and 10766 CCPM and 9965 CCPM and 5572 CCPM and 5876 CCPM | 5421 CCPM and 9318 CCPM and 10014 CCPM and 8246 CCPM and 4984 CCPM and 6346 CCPM |
| 85.3 ± 7.4 % of control | strongest concentration dependence | CCCCCCOC(=O)c1nc(CO)nc(OCCCCCC)c1C [Compound 2a, Hexyl 6-(hexyloxy)-2-(hydroxymethyl)-5-methylpyrimidine-4-carboxylate] | 7949 CCPM and 9699 CCPM and 8544 CCPM and 12898 CCPM and 11646 CCPM and 12786 CCPM | 7626 CCPM and 8685 CCPM and 9639 CCPM and 11993 CCPM and 12245 CCPM and 12903 CCPM | 7496 CCPM and 8524 CCPM and 9257 CCPM and 11421 CCPM and 11194 CCPM and 11877 CCPM | 7467 CCPM and 7915 CCPM and 7828 CCPM and 11547 CCPM and 11263 CCPM and 11635 CCPM | 6283 CCPM and 8361 CCPM and 8257 CCPM and 10077 CCPM and 11544 CCPM and 10260 CCPM | 6598 CCPM and 7105 CCPM and 7428 CCPM and 10040 CCPM and 10575 CCPM and 9972 CCPM |
| 88.5 ± 5.7 % of control |  | CCCCCCCOC(=O)c1nc(CO)nc(OCCCCCCC)c1C [Compound 2b, Heptyl 6-(heptyloxy)-2-(hydroxymethyl)-5-methylpyrimidine-4-carboxylate] | 13052 CCPM and 11682 CCPM and 11827 CCPM and 17977 CCPM and 18315 CCPM and 17029 CCPM | 11258 CCPM and 11582 CCPM and 12305 CCPM and 17512 CCPM and 18998 CCPM and 18500 CCPM | 10048 CCPM and 11019 CCPM and 11674 CCPM and 17585 CCPM and 17180 CCPM and 19863 CCPM | 10753 CCPM and 10221 CCPM and 10149 CCPM and 14691 CCPM and 16431 CCPM and 16220 CCPM | 9620 CCPM and 9492 CCPM and 9656 CCPM and 14771 CCPM and 14660 CCPM and 15872 CCPM | 9760 CCPM and 10346 CCPM and 10712 CCPM and 16581 CCPM and 14486 CCPM and 14880 CCPM |
| 93.5 ± 6.5 % of control |  | CCCCCCCCOC(=O)c1nc(CO)nc(OCCCCCCCC)c1C [Compound 2c, Octyl 2-(hydroxymethyl)-5-methyl-6-(octyloxy)pyrimidine-4-carboxylate] | 12223 CCPM and 10832 CCPM and 10701 CCPM and 18273 CCPM and 16005 CCPM and 17696 CCPM | 12118 CCPM and 12391 CCPM and 11284 CCPM and 18079 CCPM and 16200 CCPM and 17048 CCPM | 10666 CCPM and 10448 CCPM and 9501 CCPM and 18957 CCPM and 15769 CCPM and 16408 CCPM | 10483 CCPM and 10217 CCPM and 10554 CCPM and 15009 CCPM and 15224 CCPM and 15278 CCPM | 10634 CCPM and 9873 CCPM and 9750 CCPM and 16572 CCPM and 15241 CCPM and 16254 CCPM | 11684 CCPM and 11210 CCPM and 10063 CCPM and 15855 CCPM and 15398 CCPM and 15526 CCPM |

More lines, now with the values behind:

| Compound | Residual [^3H]PDBu binding to PKCα (% of control) | Displacement of [^3H]PDBu from PKCα (in words) | Displacement assay raw data (CCPM) (0,2 µM test substance) | Displacement assay raw data (CCPM) (1 µM test substance) | Displacement assay raw data (CCPM) (4 µM test substance) | Displacement assay raw data (CCPM) (10 µM test substance) | Displacement assay raw data (CCPM) (20 µM test substance) | Displacement assay raw data (CCPM) (30 µM test substance) |
| --- | --- | --- | --- | --- | --- | --- | --- | --- |
| CCCCCCCOC(=O)c1cc(C(=O)OCCCCCCC)nc(CO)n1 [Compound 1a, Diheptyl 2-(hydroxymethyl)pyrimidine-4,6-dicarboxylate] | 94.1 ± 2.4 % of control |  | 5564 CCPM and 8472 CCPM and 8055 CCPM and 9131 CCPM and 5172 CCPM and 4908 CCPM | 5111 CCPM and 8836 CCPM and 8480 CCPM and 8743 CCPM and 5670 CCPM and 5038 CCPM | 5090 CCPM and 8165 CCPM and 8077 CCPM and 7980 CCPM and 5413 CCPM and 5275 CCPM | 5789 CCPM and 8577 CCPM and 7653 CCPM and 8759 CCPM and 5036 CCPM and 5595 CCPM | 4889 CCPM and 7960 CCPM and 7787 CCPM and 7605 CCPM and 5228 CCPM and 4729 CCPM | 4835 CCPM and 7857 CCPM and 7587 CCPM and 5013 CCPM and 5317 CCPM |
| CCCCCCCCOC(=O)c1cc(C(=O)OCCCCCCCC)nc(CO)n1 [Compound 1b, Dioctyl 2-(hydroxymethyl)pyrimidine-4,6-dicarboxylate] | 104.8 ± 5.3 % of control |  | 7480 CCPM and 1215 CCPM and 1126 CCPM and 1107 CCPM and 7956 CCPM and 7520 CCPM | 7638 CCPM and 1213 CCPM and 1392 CCPM and 1115 CCPM and 7562 CCPM and 7593 CCPM | 7531 CCPM and 1201 CCPM and 1408 CCPM and 1101 CCPM and 7673 CCPM and 7303 CCPM | 7793 CCPM and 1222 CCPM and 1214 CCPM and 1251 CCPM and 7474 CCPM and 6957 CCPM | 8435 CCPM and 1194 CCPM and 1172 CCPM and 1054 CCPM and 8891 CCPM and 9450 CCPM | 6677 CCPM and 1407 CCPM and 1081 CCPM and 1070 CCPM and 6691 CCPM and 6936 CCPM |
| CCCCCCCCCCCOC(=O)c1cc(C(=O)OCCCCCCCCCCC)nc(CO)n1 [Compound 1c, Diundecyl 2-(hydroxymethyl)pyrimidine-4,6-dicarboxylate] | 103.7 ± 5.3 % of control |  | 8135 CCPM and 9009 CCPM and 9090 CCPM | 7374 CCPM and 8410 CCPM and 8950 CCPM | 8779 CCPM and 7927 CCPM and 8172 CCPM | 7968 CCPM and 8364 CCPM and 8092 CCPM | 7670 CCPM and 9322 CCPM and 8225 CCPM | 7089 CCPM and 8399 CCPM and 9539 CCPM |
| CCCCC(CC)OC(=O)c1cc(C(=O)OCC)nc(CO)n1 (stereo not shown) [Compound 1d, 4-ethyl 6-(heptan-3-yl) 2-(hydroxymethyl)pyrimidine-4,6-dicarboxylate] | 98.2 ± 1.6 % of control |  | 5785 CCPM and 11839 CCPM and 10949 CCPM and 11567 CCPM and 6093 CCPM and 6313 CCPM | 5593 CCPM and 11705 CCPM and 12203 CCPM and 11600 CCPM and 5961 CCPM | 5222 CCPM and 11573 CCPM and 11709 CCPM and 11091 CCPM and 5210 CCPM and 6475 CCPM | 5570 CCPM and 12001 CCPM and 12205 CCPM and 11408 CCPM and 5899 CCPM and 5461 CCPM | 5518 CCPM and 11664 CCPM and 11365 CCPM and 11482 CCPM and 5575 CCPM and 5277 CCPM | 5500 CCPM and 12337 CCPM and 11581 CCPM and 11144 CCPM and 5029 CCPM and 5100 CCPM |
| CCCCC(CC)OC(=O)c1cc(C(=O)OC(CC)CCCC)nc(CO)n1 (stereo not shown) [Compound 1e, Di(heptan-3-yl) 2-(hydroxymethyl)pyrimidine-4,6-dicarboxylate] | 86.7 ± 7.7 % of control |  | 5837 CCPM and 9796 CCPM and 9740 CCPM and 9577 CCPM and 6148 CCPM and 6500 CCPM | 5874 CCPM and 9629 CCPM and 9242 CCPM and 9347 CCPM and 6081 CCPM and 6166 CCPM | 6376 CCPM and 9023 CCPM and 9333 CCPM and 9667 CCPM and 6505 CCPM and 6158 CCPM | 5476 CCPM and 8845 CCPM and 9519 CCPM and 8799 CCPM and 5785 CCPM and 5946 CCPM | 5873 CCPM and 9742 CCPM and 7884 CCPM and 7727 CCPM and 6291 CCPM and 6049 CCPM | 5476 CCPM and 8529 CCPM and 8458 CCPM and 9304 CCPM and 5635 CCPM and 5882 CCPM |
